Data as given in patent publication US12016858B2, “Methods for the treatment of abnormal involuntary movement disorders” (AUSPEX PHARMACEUTICALS, INC., priority 2015, dated 2024).

What was measured:
[1] = tested on: cardiac repolarization (QTcF interval); experiment: TQT study, six-period crossover, placebo- and positive-controlled; assay type: in vivo, healthy volunteers
Procedure: Study Design. Given the known risk for tetrabenazine to increase the QT interval, a TQT study of deutetrabenazine, which included tetrabenazine as a treatment arm, was conducted in 48 healthy volunteers. This was a single-center, randomized, double-blind, placebo- and positive-controlled six-period crossover study to evaluate the effects of low-dose (12 mg) and high-dose (24 mg) deutetrabenazine on cardiac repolarization, based on placebo-corrected, time-matched changes from baseline in the QTcF interval. Assay sensitivity was established by using moxifloxacin 400 mg as the positive control.
The key outcome measure was to determine the effect of single doses of deutetrabenazine on the QTc interval.
In the table above, ΔΔQTcF is defined as the difference between the least squares mean change from baseline for the active drug and placebo. deutetrabenazine was compared with deutetrabenazine placebo (administered under fed conditions) and tetrabenazine was compared with tetrabenazine placebo (administered under fasted conditions). […] The upper limit of the 95% one-sided confidence interval is the upper limit of the 90% 2-sided confidence interval.

[2] = tested on: patients with hyperkinetic movement disorders; conditions: retrospective study of 98 patients; cited from earlier work
[3] = tested on: patients with HD; conditions: cited from earlier work
[4] = tested on: QTc interval; conditions: 50 mg; 90% two-sided CI: 5.0, 10.4 ms; cited from earlier work
[5] = 12-week placebo-controlled study

## COc1cc2c(cc1OC)C1CC(=O)C(CC(C)C)CN1CC2 (stereo not shown) [tetrabenazine, 1,3,4,6,7,11b-Hexahydro-9,10-dimethoxy-3-(2-methylpropyl)-2H-benzo[a]quinoline]
[1]; 50 mg single dose, fasted
  Maximum Placebo-Adjusted Change from Baseline in QTcF: 7.6 ms
[1]; in vivo
  time point at which the maximal ΔΔQTcF was observed: 3 h
[2]
  dysphagia observed in patients: 19%
[3]; [5]
  TMC score of the UHDRS: demonstrated to improve the TMC score
  TMS: failed to show statistically significant improvement in TMS
[3]; 12-week randomized controlled trial
  adverse events suggestive of parkinsonism: 15%
[3]; 28 of 54 patients randomized
  patients in whom dose escalation was discontinued or dosage reduced due to adverse events: 52%
[3]; N = 54
  Adverse reaction Akathisia: 10 (19) n (%)
  Adverse reaction Anxiety/anxiety aggravated: 8 (15) n (%)
  Adverse reaction Appetite decreased: 2 (4) n (%)
  Adverse reaction Balance difficulty: 5 (9) n (%)
  Adverse reaction Bronchitis: 2 (4) n (%)
  Adverse reaction Depression: 10 (19) n (%)
  Adverse reaction Dizziness: 2 (4) n (%)
  Adverse reaction Dysarthria: 2 (4) n (%)
  Adverse reaction Dysuria: 2 (4) n (%)
  Adverse reaction Ecchymosis: 3 (6) n (%)
  Adverse reaction Fall: 8 (15) n (%)
  Adverse reaction Fatigue: 12 (22) n (%)
  Adverse reaction Gait unsteady: 2 (4) n (%)
  Adverse reaction Headache: 2 (4) n (%)
  Adverse reaction Insomnia: 12 (22) n (%)
  Adverse reaction Irritability: 5 (9) n (%)
  Adverse reaction Laceration (head): 3 (6) n (%)
  Adverse reaction Nausea: 7 (13) n (%)
  Adverse reaction Obsessive reaction: 2 (4) n (%)
  Adverse reaction Parkinsonism/bradykinesia: 5 (9) n (%)
  Adverse reaction Sedation/somnolence: 17 (31) n (%)
  Adverse reaction Shortness of breath: 2 (4) n (%)
  Adverse reaction Upper respiratory tract infection: 6 (11) n (%)
  Adverse reaction Vomiting: 3 (6) n (%)
[3]; prescribing information
  boxed warning: depression and suicidality in patients with HD: increases the risk of depression and suicidal thoughts and behavior (suicidality)
[4]
  mean increase in QTc interval: approximately 8 ms

## COc1c(N2C[C@@H]3CCCN[C@@H]3C2)c(F)cc2c(=O)c(C(=O)O)cn(C3CC3)c12 [Moxifloxacin, reference compound]
[1]; 400 mg, positive control
  Maximum Placebo-Adjusted Change from Baseline in QTcF: 14.0 ms
